We go through 1 substance from patent US11672786B2, “Methods of treating diseases associated with repeat instability” (The Hospital for Sick Children, priority 2016, dated 2023).

Values joined by “and” are separate entries in the source; they are usually repeats but may differ in a detail not shown here. Equal entries are not always repeated.

For this assay, the system named is HT1080-(CAG)850 contact inhibition. Nature of the assay: small-pool PCR repeat instability, non-proliferating HT1080-(CAG)850 cells under contact inhibition. Conditions: 50 uM NA, 30 days. The assay is classed as cell-based, human. On the procedure: The construction of the HT1080-(CAG)850 cell model was described previously (Sathasivam et al., 1997, Hum. Genet., 99:692-5). Briefly, HT1080 (ATCC) human fibrosarcoma cells were co-transfected with a plasmid (LC15-R) containing 800-850 (CTG)●(CAG) repeats (Nakatani et al., 2005, Nat. Chem. Biol., 1:39-43) and a plasmid encoding PhiC31 integrase. Transfection was performed with a Nucleofector (Lonza, Basel, Switzerland), and stably transfected clones were selected with puromycin. […] The HT1080-non-transcribing (CAG)850 cell model was established by transfecting a plasmid modified from pLC16 by inserting an additional SV40 polyadenylation signal downstream of the repeats (in addition to the original polyadenylation signals located upstream of the repeats), so that CAG/CTG repeats are floxed by transcription-terminator elements. The AttB-PhiC31 system has been widely used for single copy integration. […] The HT1080 model cells and an HD primary fibroblast cell line, GM09197 (Coriell Biorepository) with a large expanded allele of 180 CAG repeats and a non-expanded allele of 23 repeats (Sathasivam et al., 1997, Hum. Genet., 99:[…]), the HD primary fibroblast cell line, GM02191 (Coreill Biorepository) with an expanded allele of 43 CAG repeats and a non-expanded allele of 19 repeats, were cultured at 37° C. with 5% CO2 in Dulbecco's modified Eagle's medium supplemented with 10% fetal bovine serum and 1% penicillin/streptomycin. Cells were treated with or without continuous exposure to 50-μM NA for 30 days (HT1080 cells) or for 40 days (fibroblast cells). For experiments on non-proliferating cells, HT1080 cells were grown to confluence and then treated for the same period. WST-1 assay was performed according to the manufacturer's instructions (Roche, Basel, Switzerland). All cell lines were tested to be free of Mycoplasma. Three biological replicates were performed for each experiment.
Proliferation was inhibited by growth under contact inhibition and serum starvation, as previously performed. Degree of arrest from proliferation was assessed in living cells by counting BrdU positive cells after 24 hrs incubation with BrdU in proliferating or contact-inhibited (and serum starved) HT1080-(CAG)850 cells. The percentage of BrdU positive cells was 92.6% in proliferating cells and 8.17% in contact-inhibited cells. Although a small portion of HT1080-(CAG)850 cells were still proliferating even under contact-inhibition and serum starvation, the ratio is very small. Based on a calculation how many cells derive from a single cell after 30 days (the period that was studied) (proliferating, 1.926^30=348653546.6; contact inhibition, 1.0817^30=10.55), the effect of proliferation in contact-inhibited cells can be ignored.
Genomic DNA was extracted from HT1080-(CAG)850 clones and HD primary fibroblasts using the Gentra Puregene Cell Kit (Qiagen, Valencia, Calif.). The expanded (CTG)●(CAG) repeats were sized by small-pool PCR (sp-PCR) followed by Southern blot as described previously (Sathasivam et al., 1997, Hum. Genet., 99:692-5). For HT1080 models, small-pool PCR (spPCR) was performed with the input of 1.4-1.7 genome equivalents. The repeat size difference in the models is, at most, 3000 base-pairs, therefore, being strictly conservative, a bias toward amplifying the shorter allele can be possible, even under optimized PCR conditions described herein. For HD primary fibroblasts, sp-PCR & Southern blots were performed as described previously with slight modifications (Tome et al., 2013, PLoS Genet., 9:e1003280). Briefly, the PCR primers listed in Table 1 were used, and blots were hybridized with a DIG-labeled (CAG)7 locked nucleic acid probe (Nakamori et al. 2009, Neuromuscul. Disord., 19:759-62).

Setting [1] is: single experiments Ex 1-3, cut-off ±25 repeats.

Take naphthyridine-azaquinolone: under “Total”, the “% Contraction” value turned out to be 53.3%, the “% Expansion” value is recorded as 16.6%, the “% Unchanged” value worked out at 30.2% and the “Average Change of Repeat Size” value is listed as −90.9 number of repeats. For the same substance, the “% Unchanged” value (single experiments Ex 1-3) is 34.9% and 25.0% and 30.0%. For the same substance, under setting [1], the “% Contraction” value was 49.2% and 57.1% and 54.0%; the “% Expansion” value is 15.9% and 17.9% and 16.0%.
